The structures appear in SMILES notation.

For this assay, the target named is T1, human liver GK (Homo sapiens, UniProt P35557).
T1 construct: GST (glutathione S-transferase) (N); made in house; host or cells: E. coli
T1 sequence (P35557 1-466 isoform P35557-2): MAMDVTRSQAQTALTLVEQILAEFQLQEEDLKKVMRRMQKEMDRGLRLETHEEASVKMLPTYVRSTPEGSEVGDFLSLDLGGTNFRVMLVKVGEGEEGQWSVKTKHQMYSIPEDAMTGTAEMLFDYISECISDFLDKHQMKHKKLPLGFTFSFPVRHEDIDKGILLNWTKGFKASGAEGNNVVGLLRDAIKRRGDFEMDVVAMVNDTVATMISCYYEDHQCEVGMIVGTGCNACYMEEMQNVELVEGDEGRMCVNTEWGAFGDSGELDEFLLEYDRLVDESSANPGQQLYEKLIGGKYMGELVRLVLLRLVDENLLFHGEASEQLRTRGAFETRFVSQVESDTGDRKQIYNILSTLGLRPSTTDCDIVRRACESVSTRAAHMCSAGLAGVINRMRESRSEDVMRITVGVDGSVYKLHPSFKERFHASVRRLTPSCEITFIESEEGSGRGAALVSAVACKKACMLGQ
Put plainly: GK activation test. The assay is classed as biochemical. As to conditions: test compound concentration needed to activate 50% of maximum activation ability; 4 mM 14C-labeled glucose, 2 mM ATP, room temperature, 20 minutes. On the procedure: The GK activation test for the test compounds was performed by the method of Irwin A. Rose et al. (J. Biol. Chem. 1964 January; 239:12-7) with partial modifications.
The enzyme source used in this assay, human liver GK, was expressed in E. coli as a fusion protein with GST (glutathione S-transferase) added to the amino terminus and was purified using Glutathione Sepharose 4B (Amersham Biosciences).
The test was carried out using flat-bottom 96-well plates (Sumitomo Bakelite Co., Ltd.). A solution of the test compound in dimethyl sulfoxide (DMSO) and DMSO as a control were added to each well of the plates at a final DMSO concentration of 1%. 25 mM Hepes-KOH (pH=7.1), 25 mM KCl, 2 mM MgCl2, 2 mM ATP, 4 mM ^14C-labeled glucose (Muromachi Yakuhin) and 1 mM DTT (dithiothreitol) were further added at the indicated final concentrations, respectively. Finally, human liver GK was added at 0.24 microgram per well and the reaction was started. The reaction was carried out at room temperature.
After 20 minutes, AG1-X4 resin (BioRad) suspended in 25 mM Hepes-KOH (pH=7.1) was added and the reaction product, labeled glucose 6-phosphate, was allowed to bind thereto. The whole volume was transferred to MultiScreen plates (Millipore) and the resin was washed with water. Thereafter, the labeled glucose 6-phosphate binding to the resin was eluted with a 0.5 M NaCl solution. The labeling activity of the eluted labeled glucose 6-phosphate was measured as an index of GK activity.
The GK activity maximally activated by the test compound was described as maximum activation ability, and the test compound concentration needed to activate 50% of that ability was described as EC50.
By EC50 is commonly meant the midpoint of the concentration-response curve. Regarding `CN(C)C(=O)c1ccc(/C(=C\[C@H]2CCC(=O)N2)c2ccc(Cl)c(=O)[nH]2)cc1` [Example 4-161, 4-{(E)-1-(5-Chloro-6-oxo-1,6-dihydropyridin-2-yl)-2-[(2R)-5-oxopyrrolidin-2-yl]ethenyl}-N,N-dimethylbenzamide], the EC50 was in the range of 3000 to 10000 nM.

For `CC(C)(C)c1ccc(/C(=C\[C@H]2CCC(=O)N2)c2ccc(CCC(N)=O)c(=O)[nH]2)cc1` [Example 4-201, 3-(6-{(E)-1-(4-tert-Butylphenyl)-2-[(2R)-5-oxopyrrolidin-2-yl]ethenyl}-2-oxo-1,2-dihydropyridin-3-yl)propanamide], the EC50 was 500 to 3000 nM.

Molecule `O=C1CC[C@H](/C=C(\c2ccc(S(=O)(=O)C3CC3)cc2)c2ccc(C3CC3)c(=O)[nH]2)N1` [Example 4-290, 3-Cyclopropyl-6-{(E)-1-[4-(cyclopropylsulfonyl)phenyl]-2-[(2R)-5-oxopyrrolidin-2-yl]ethenyl}pyridin-2(1H)-one] registered an EC50 of 10 to 500 nM.

Consider `N#Cc1cc(/C(=C\[C@H]2CCC(=O)N2)c2ccc(C3CC3)c(=O)[nH]2)ccc1F` [Example 4-288, 5-{(E)-1-(5-Cyclopropyl-6-oxo-1,6-dihydropyridin-2-yl)-2-[(2R)-5-oxopyrrolidin-2-yl]ethenyl}-2-fluorobenzonitrile], for which the 50% effective concentration (EC50) was in the range of 3000 to 10000 nM.

In the case of `O=C1CC[C@H](CC(c2ccc(S(=O)(=O)C3CC3)cc2)c2ccc(C3CC3)c(=O)[nH]2)N1` (single isomer, unassigned) [Example 4-307], the EC50 lay in the range of 3000 to 10000 nM.

The molecule `O=c1[nH]c(/C(=C/C2CCOCC2)c2ccc(S(=O)(=O)C3CC3)cc2)ccc1Cl` [Example 1-110, 3-Chloro-6-[(E)-1-[4-(cyclopropylsulfonyl)phenyl]-2-(tetrahydro-2H-pyran-4-yl)ethenyl]pyridin-2(1H)-one] returned an EC50 of 500 to 3000 nM.

Consider `CSc1ccc(/C(=C\[C@H]2CCN(C(C)=O)C2)c2ccc(C3CC3)c(=O)[nH]2)cc1` [Example 4-39, 6-{(E)-2-[(3R)-1-Acetylpyrrolidin-3-yl]-1-[4-(methylsulfanyl)phenyl]ethenyl}-3-cyclopropylpyridin-2(1H)-one], for which the concentration for a half-maximal effect (EC50) fell in the range of 10 to 500 nM.

For `O=C1CC[C@H](CC(c2ccc(S(=O)(=O)C3CC3)c(Cl)c2)c2ccc(Cl)c(=O)[nH]2)N1` (single isomer, unassigned) [Example 4-304], the half-maximal effective concentration (EC50) is 10 to 500 nM.

`O=C1CC[C@H](CC(c2ccc3c(c2)CCO3)c2ccc(C3CC3)c(=O)[nH]2)N1` (single isomer, unassigned) [Example 4-209]: the EC50 was 500 to 3000 nM.

Molecule `CC(C)(C)c1ccc(/C(=C\[C@H]2CCC(=O)N2)c2ccc(C3CCCC3)c(=O)[nH]2)cc1` [Example 4-194, 6-{(E)-1-(4-tert-Butylphenyl)-2-[(2R)-5-oxopyrrolidin-2-yl]ethenyl}-3-cyclopentylpyridin-2(1H)-one] returned an EC50 of 10 to 500 nM.

`O=C1CC[C@H](/C=C(\c2ccc(C(F)(F)F)cc2)c2ccc(Cl)c(=O)[nH]2)N1` [Example 4-19, 3-Chloro-6-{(E)-2-[(2R)-5-oxopyrrolidin-2-yl]-1-[4-(trifluoromethyl)phenyl]ethenyl}pyridin-2(1H)-one]: the EC50 is 500 to 3000 nM.

`O=C1CC[C@H](/C=C(\c2ccc(C3CC3)cc2)c2ccc(Cl)c(=O)[nH]2)N1` [Example 4-88, 3-Chloro-6-{(E)-1-(4-cyclopropylphenyl)-2-[(2R)-5-oxopyrrolidin-2-yl]ethenyl}pyridin-2(1H)-one] gave an EC50 of 500 to 3000 nM.

The molecule `CC(C)(C)c1ccc(/C(=C\CCO)c2ccc(Cl)c(=O)[nH]2)cc1` [Example 6-24, 6-[(1E)-1-(4-tert-Butylphenyl)-4-hydroxybut-1-en-1-yl]-3-chloropyridin-2(1H)-one] displayed an EC50 of 3000 to 10000 nM.

For `CC(C)(C)c1ccc(/C(=C\C(=O)N2CCCC2)c2ccc(Cl)c(=O)[nH]2)cc1` [Example 6-15, 6-[(1E)-1-(4-tert-Butylphenyl)-3-oxo-3-(pyrrolidin-1-yl)prop-1-en-1-yl]-3-chloropyridin-2(1H)-one], the concentration for a half-maximal effect (EC50) was in the range of 3000 to 10000 nM.

As to `CSc1ccc(C(CC2CCOCC2)c2ccc(C)c(=O)[nH]2)cc1` (centres unmarked) [Example 2-18, 3-Methyl-6-{1-[4-(methylsulfanyl)phenyl]-2-(tetrahydro-2H-pyran-4-yl)ethyl}pyridin-2(1H)-one], the EC50 lay within 3000 to 10000 nM.

`CC(C)(C)c1ccc(C(NC2CCCC2)c2ccc(Cl)c(=O)[nH]2)cc1` (centres unmarked) [Example 7-5, 6-[(4-tert-Butylphenyl)(cyclopentylamino)methyl]-3-chloropyridin-2(1H)-one] returned an EC50 of 3000 to 10000 nM.

Consider `Cc1ccc([C@@]2(c3ccc(S(C)(=O)=O)cc3)C[C@@H]2C2CCCC2)[nH]c1=O` (relative stereo) [Example 3-4, trans-6-{2-Cyclopentyl-1-[4-(methylsulfonyl)phenyl]cyclopropyl}-3-methylpyridin-2(1H)-one], for which the EC50 lay in the range of 3000 to 10000 nM.

Regarding `Cc1ccc(/C(=C\[C@H]2CCC(=O)N2)c2ccc(C3CC3)c(=O)[nH]2)c(Cl)c1` [Example 4-109, 6-{(E)-1-(2-Chloro-4-methylphenyl)-2-[(2R)-5-oxopyrrolidin-2-yl]ethenyl}-3-cyclopropylpyridin-2(1H)-one], the EC50 lay within 500 to 3000 nM.

As for `CC(C)(C)c1ccc(/C(=C\[C@H]2CCC(=O)N2)c2ccc(Cl)c(=O)[nH]2)cc1Cl` [Example 4-71, 6-{(E)-1-(4-tert-Butyl-3-chlorophenyl)-2-[(2R)-5-oxopyrrolidin-2-yl]ethenyl}-3-chloropyridin-2(1H)-one], the EC50 fell in the range of 10 to 500 nM.

On to `CCCOc1ccc(C(C[C@H]2CCC(=O)N2)c2ccc(C3CC3)c(=O)[nH]2)cc1` (single isomer, unassigned) [Example 4-352], for which the EC50 lay in the range of 500 to 3000 nM.

In the case of `O=C1CC[C@H](/C=C(\c2ccc(OCCCCO)c(Cl)c2)c2ccc(C3CC3)c(=O)[nH]2)N1` [Example 4-11, 6-{(E)-1-[3-Chloro-4-(4-hydroxybutoxy)phenyl]-2-[(2R)-5-oxopyrrolidin-2-yl]ethenyl}-3-cyclopropylpyridin-2(1H)-one], the half-maximal effective concentration (EC50) lay in the range of 10 to 500 nM.

The molecule `Cc1ccc(/C(=C\[C@H]2CCC(=O)N2)c2ccc(Cl)c(=O)[nH]2)cc1C(F)(F)F` [Example 4-25, 3-Chloro-6-{(E)-1-[4-methyl-3-(trifluoromethyl)phenyl]-2-[(2R)-5-oxopyrrolidin-2-yl]ethenyl}pyridin-2(1H)-one] registered an EC50 of 500 to 3000 nM.

In the case of `O=C1CC[C@H](/C=C(\c2ccc(OC(F)(F)F)cc2)c2ccc(C3CC3)c(=O)[nH]2)N1` [Example 4-126, 3-Cyclopropyl-6-{(E)-2-[(2R)-5-oxopyrrolidin-2-yl]-1-[4-(trifluoromethoxy)phenyl]ethenyl}pyridin-2(1H)-one], the EC50 is 10 to 500 nM.

Molecule `CC(C)c1ccc(/C(=C\CN2CCOC2=O)c2ccc(Cl)c(=O)[nH]2)cc1` [Example 6-22, 3-Chloro-6-{(1E)-3-(2-oxo-1,3-oxazolidin-3-yl)-1-[4-(propan-2-yl)phenyl]prop-1-en-1-yl}pyridin-2(1H)-one] showed a 50% effective concentration (EC50) of 500 to 3000 nM.

As to `CC(C)(C)c1ccc(/C(=C\[C@H]2CCC(=O)N2)c2ccc(-c3cccnc3)c(=O)[nH]2)cc1` [Example 4-180, 6-{(E)-1-(4-tert-Butylphenyl)-2-[(2R)-5-oxopyrrolidin-2-yl]ethenyl}-3,3′-bipyridin-2(1H)-one], the 50% effective concentration (EC50) was 10 to 500 nM.

Take `Cc1ccc(C(C[C@H]2CCC(=O)N2)c2ccc(C3CC3)c(=O)[nH]2)cc1Cl` (single isomer, unassigned) [Example 4-215]: the concentration giving a half-maximal response (EC50) was 10 to 500 nM.

Values taken from US8822503B2, “2-pyridone compounds” (Taisho Pharmaceutical Co., Ltd, priority 2009, dated 2014).
